Here are results for 101 compounds from ChEMBL document CHEMBL3507680, “University of Dundee, Gates Library screen for HepG2 cell viability”.

The nature of the data set: Human HepG2 cell viability assay in 384 well format. It counts as toxicity, cell-based. Also on record: dose 125 nL, time 70.5 hour; concentration not given beside the values. Conditions: HepG2 cells, read-out: Inhibition.
Turning to `CN(C(=O)Cc1ccc2c(c1)OCCO2)C1CCCC1`, the cytotoxicity at 70.5 h amounted to 19.8%.
As for `Cc1nc(N2CCOCC2)nc2c1CCN(c1nccs1)CC2`, the cytotoxicity at 70.5 h is -5.03%.
On to `Cc1cccc(-c2ccc(C(=O)N3CCN(C(C)C)CC3)c(=O)[nH]2)c1`, for which the cytotoxicity at 70.5 h was -2.78%.
Consider `CSCC(=O)N1CCN(CC(O)C(C)(C)C)CC1` (stereo unspecified), for which the cytotoxicity at 70.5 h is -10.6%.
Under `COCCC(=O)N1CCN(CCN(C)C)c2ncccc2C1` stands -6.14%.
Under `Fc1ccc(C(CNc2ccncn2)N2CCCC2)cc1` (stereo unspecified) stands 12.7%.
To `CC(C)N1CCC(NC(=O)NCc2cccnc2)C1` (stereo unspecified) belongs -1.38%.
Regarding `Cc1nc(Nc2nncs2)cc(C2CNC2)n1`, the cytotoxicity at 70.5 h was -5.34%.
In the case of `CCNc1cc2c(nn1)CCN(C(=O)c1ccnc(N(C)C)c1)C2`, the cytotoxicity at 70.5 h worked out at 0.651%.
Take `Cc1cc(C2CCCCN2C(=O)c2cccn2C)nc2nccn12` (stereo unspecified): the cytotoxicity at 70.5 h was 4.86%.
Take `N#Cc1ccccc1Cn1cncn1`: the cytotoxicity at 70.5 h is 9.79%.
On to `Cc1ccc(C(=O)N(CC(=O)O)CC(C)C)cc1F`, for which the cytotoxicity at 70.5 h was -7.92%.
Regarding `COc1ccc2nc(CNC(=O)c3cc(C(C)C)on3)[nH]c2c1`, the cytotoxicity at 70.5 h is -14.8%.
As to `CN(CCc1ccncc1)Cc1c(C2CCCC2)[nH]c2ncccc12`, the cytotoxicity at 70.5 h was -1.56%.
Under `COc1cccc(C2CCN2C(=O)c2cnccn2)c1` (stereo unspecified) stands -2.61%; under `Cc1cccc(N2N=C(C(=O)NC(C)Cn3cccn3)CCC2=O)c1` (stereo unspecified), -14.7%.
`CC(Cc1cccc(Cl)c1)NC(=O)NCc1ncnn1C` (stereo unspecified): the cytotoxicity at 70.5 h is 11.1%.
Take `Cc1nc(Nc2nccs2)cc(C2CN(C(C)C)C2)n1`: the cytotoxicity at 70.5 h is -5.94%.
As for `CC(=O)N(Cc1noc(C)n1)C1CCN(CC(=O)N(C)C2CC2)C1` (stereo unspecified), the cytotoxicity at 70.5 h is -2.89%.
As to `Cc1cc(C(=O)NC2=NCCS2)c(C)n1-c1ccccn1`, the cytotoxicity at 70.5 h is -6.96%.
`Cc1nc2n(n1)CC(NCc1ccccc1OCC(=O)N(C)C)CC2` (stereo unspecified): the cytotoxicity at 70.5 h is -3.73%.
As to `C[C@H](O)CNC(=O)c1cnc(-c2ccccc2)nc1O`, the cytotoxicity at 70.5 h was -4.5%.
On to `CCCc1noc(CS(=O)(=O)CC(=O)NC(C)CCC)n1` (stereo unspecified), for which the cytotoxicity at 70.5 h is -5.83%.
As for `CCc1c(NCc2cccnc2)cnn1CC(C)C`, the cytotoxicity at 70.5 h is -5.5%.
As to `N#Cc1ccc(C(=O)NCCCNc2ccc(C(F)(F)F)cn2)cc1`, the cytotoxicity at 70.5 h came to 0.522%.
In the case of `COC(=O)[C@H]1CN(C(C)=O)CCN1C(C)=O`, the cytotoxicity at 70.5 h is -2.71%.
For the compound `COC(=O)N1CCC(CNC(=O)C2CCN(S(C)(=O)=O)CC2)CC1`, the cytotoxicity at 70.5 h is -19.3%.
As for `Cc1nc(C)n(CC2CCCN2CCOc2ccccc2F)n1` (stereo unspecified), the cytotoxicity at 70.5 h is -3.47%.
Take `O=C(CN1CC(c2ccccc2)CC1=O)N1CCC(c2ncc[nH]2)CC1` (stereo unspecified): the cytotoxicity at 70.5 h was -4.48%.
Take `CC(CNC(=O)c1ccn(-c2ccc(F)cc2)n1)Cn1cccn1` (stereo unspecified): the cytotoxicity at 70.5 h was -22.8%.
To `Clc1ccc(OCCCN2CCOC(Cn3cncn3)C2)cc1` (stereo unspecified) belongs 24.6%; to `Cc1ccc(C(=O)NCc2cc(F)ccc2N2CCCN(C)CC2)o1`, 1.17%.
`COCC1CN(Cc2ccncc2)Cc2nn(C)cc21` (stereo unspecified): the cytotoxicity at 70.5 h was found to be 30.7%.
`COc1nn(C)c2c1CCCN(C(=O)c1ccsc1)C2`: the cytotoxicity at 70.5 h was -108%.
As to `O=C(O)CC(CC(=O)N(Cc1ccsc1)C1CC1)c1cccs1` (stereo unspecified), the cytotoxicity at 70.5 h turned out to be 20.8%.
Consider `COC(=O)[C@@H]1Cc2ncn(C(C)C)c2CN1S(=O)(=O)Cc1ccccc1`, for which the cytotoxicity at 70.5 h is -6.37%.
To `CCOC(=O)NCCNC(=O)c1cc(Br)cn1C(C)C` belongs 9.21%; to `COc1ccc(CN2CCC3(CC2)CN(c2ccccn2)CCO3)cc1`, 2.33%.
As to `COC(=O)CCC(=O)N1CCc2nc(C(=O)N3CCCCC3)sc2CC1`, the cytotoxicity at 70.5 h is -1.33%.
Under `Cc1nc(Cn2c(=O)cnc3ccccc32)n(C)n1` stands -24.2%.
As for `CCN(CC)C(=O)CCNC(=O)N(C)Cc1ccc(SC)c(OC)c1`, the cytotoxicity at 70.5 h was -11.2%.
For the compound `CCCc1cc(N2CCC(NCCc3ccc(O)cc3)CC2)nc(C)n1`, the cytotoxicity at 70.5 h is -4.92%.
As for `CC(C)(C)OCC1CN(CC2CC2)S(=O)(=O)c2cnccc2O1` (stereo unspecified), the cytotoxicity at 70.5 h is -4.79%.
For the compound `NC(=O)C1CN(C(=O)Nc2ccccc2SC(F)(F)F)CCO1` (stereo unspecified), the cytotoxicity at 70.5 h is -10.6%.
To `Cc1cnn(CC2CCCN2Cc2cc(C)on2)c1` (stereo unspecified) belongs -4.61%.
`CC(O)CN1CCN(C(=O)c2cccn2Cc2ccncc2)CC1` (stereo unspecified): the cytotoxicity at 70.5 h is -16.4%.
On to `NC(=O)c1cc(CC2CCCN(Cc3cnccn3)CC2)ncn1` (stereo unspecified), for which the cytotoxicity at 70.5 h was -2.22%.
Take `COc1cccc(CN(C)C(=O)CN2CCN(CCO)CC2)c1`: the cytotoxicity at 70.5 h was -7.48%.
As for `CN(C)C(=O)N1CCC2(CC(=O)N(c3cccc(C#N)c3)C2)C1` (stereo unspecified), the cytotoxicity at 70.5 h was -5.09%.
In the case of `Cn1cccc1C(=O)N1CCc2ncc(Cn3cccn3)n2CC1`, the cytotoxicity at 70.5 h was 16.9%.
To `CC(=O)N(Cc1ccsc1)c1ccccc1` belongs -7.44%; to `CC(C)N1CCC(Cc2cncc(-c3cccc(C(=O)O)c3)n2)C1` (stereo unspecified), -5.63%.
To `CC(Cc1cncs1)Nc1ncnc2cccc(F)c12` (stereo unspecified) belongs 1.5%; to `CSc1ccc(CNC(c2ccccc2F)c2nccn2C)cc1` (stereo unspecified), 0.516%.
Under `CCS(=O)(=O)N1CCc2ccc(NC(=O)NC(C)(C)C)cc21` stands -13.6%; under `Cc1nn(CCO)cc1CN1CCCC1c1nc2c(C)cccc2[nH]1` (stereo unspecified), -2.76%; under `COCCNC(=O)c1cc(-c2ccc3c(c2)CCO3)n[nH]1`, 15.5%.
Take `CC(C)c1nc(C2CCCN2C(=O)c2nccnc2N)no1` (stereo unspecified): the cytotoxicity at 70.5 h was -7.76%.
For `Cc1ccnc(C2CN(Cc3ccc(-c4ccccc4C(=O)O)o3)C2)n1`, the cytotoxicity at 70.5 h is -0.616%.
Consider `COC(=O)c1cc(OC)c(OC)cc1N(C)S(C)(=O)=O`, for which the cytotoxicity at 70.5 h is 41.7%.
Turning to `Cc1ccc(CN2CCNC(=O)C2CC(=O)N2CCSCC2)o1` (stereo unspecified), the cytotoxicity at 70.5 h was 2.5%.
For `CCn1c(N)nc2cc(C(=O)N3Cc4ccccc4C3)cnc21`, the cytotoxicity at 70.5 h is -4.1%.
Consider `CN1CCC/C1=N\S(=O)(=O)c1ccc(NC(=O)c2ccsc2)cc1`, for which the cytotoxicity at 70.5 h is -11.8%.
Turning to `Cc1sc(C(=O)NC(C)C)cc1S(=O)(=O)N(C)C`, the cytotoxicity at 70.5 h was -5.26%.
To `O=C([C@@H](O)Cc1ccccc1)N1CCCn2cncc2C1` belongs -7.92%; to `O=C(CN(C1=NCCCC1)c1ccccc1)c1ccc2c(c1)OCCO2`, -16.3%.
In the case of `Cc1ccc(CNC(=O)c2nc3c(o2)CN(C(=O)c2cccnc2)C3)o1`, the cytotoxicity at 70.5 h was -1.67%.
Turning to `CCC1CCCCN1Cc1ncc(-c2ccc(OC)cc2)o1` (stereo unspecified), the cytotoxicity at 70.5 h came out at 18.3%.
As for `CNC(=O)C1(N(C)CCc2ccccc2)Cc2ccccc2C1`, the cytotoxicity at 70.5 h was -1.19%.
On to `CCc1nnsc1C(=O)N1CCCC(COc2ccc(F)cc2)C1` (stereo unspecified), for which the cytotoxicity at 70.5 h is -4.43%.
On to `CC(C)N1CCC(Nc2ccn(C)n2)C1=O` (stereo unspecified), for which the cytotoxicity at 70.5 h was -3.38%.
On to `O=C1CCC2(CCNCC2)CN1CCCNc1cccnc1`, for which the cytotoxicity at 70.5 h was -0.123%.
Under `CCOC(=O)CCN(Cc1cccnc1)C(=O)c1cc(Cl)c[nH]1` stands -6.02%; under `COCc1noc(CN2CCC3(CC2)[C@H](O)C[C@@H]3OC)n1`, -5.38%.
Take `CC(Nc1ncnc2c1NC(=O)CN2)c1ccccn1` (stereo unspecified): the cytotoxicity at 70.5 h was -13.6%.
On to `CCn1ccnc1CN1CCN(CCC(=O)NC2CCCCC2)CC1`, for which the cytotoxicity at 70.5 h was -6.92%.
To `CCc1nccn1CC(=O)N1C[C@H]2CC[C@@H]1CN(C(=O)N(C)C)C2` belongs -3.56%; to `FC(F)(F)c1cccc(-c2c[nH]c(C3CCCN3)n2)c1` (stereo unspecified), 1.03%.
Regarding `COc1ccc(CNc2nc(N3CCOCC3)ns2)cc1`, the cytotoxicity at 70.5 h is -10.7%.
For `O=C(O)c1cccc(S(=O)(=O)N2CCOc3ccccc32)c1`, the cytotoxicity at 70.5 h is -12.8%.
To `Cc1occc1C(=O)N1CCC2(CC1)CC(c1cccnc1)C(=O)N2C` (stereo unspecified) belongs -17.4%; to `Cc1ncsc1CN1CC[C@H]2OCC[C@@]2(C(=O)N2CCCC2)C1`, -1.98%.
For the compound `Cc1nc(C)c(C(=O)N2CCc3cc(F)ccc3C2C)o1` (stereo unspecified), the cytotoxicity at 70.5 h is -4.82%.
As to `CNC(=O)c1cccc(C2CNCCN2C)c1` (stereo unspecified), the cytotoxicity at 70.5 h worked out at 19.9%.
Turning to `Cc1cccc(CN2CCN3C(=O)NC[C@H]3C2)n1`, the cytotoxicity at 70.5 h is -2.26%.
Consider `CCc1nnc2n1CCN(C(=O)CCc1ccc3c(c1)OCO3)C2`, for which the cytotoxicity at 70.5 h was -18.7%.
Take `Cn1ccnc1SCCNc1ccnc(C(F)(F)F)n1`: the cytotoxicity at 70.5 h was -2.76%.
For the compound `CN(C)C(=O)CO[C@@H]1CC[C@H]2[C@H]1OCCN2c1ncc(F)cn1`, the cytotoxicity at 70.5 h was -6.35%.
On to `CC1CCCCN1c1nc2c(c(=O)[nH]1)CCN(Cc1ccc(O)cc1)C2` (stereo unspecified), for which the cytotoxicity at 70.5 h was -8.85%.
To `CC(C)Cc1nc(CS(=O)(=O)C(C)C(=O)N2CCOCC2)no1` (stereo unspecified) belongs -7.75%.
As to `CC(C)CCN1C[C@H]2CCN(C(=O)NC3CCCC3)CC[C@H]2S1(=O)=O`, the cytotoxicity at 70.5 h is -23.9%.
Consider `N#Cc1cccc(C(=O)N2CCc3c(COCC4CC4)cncc3C2)c1`, for which the cytotoxicity at 70.5 h was -17.6%.
On to `CC(C)N(Cc1cnn(C)c1)CC1CCCN(S(C)(=O)=O)C1` (stereo unspecified), for which the cytotoxicity at 70.5 h is 10.1%.
In the case of `CCS(=O)(=O)N1CC[C@H]2O[C@@H](c3nnc(C)o3)CC[C@H]21`, the cytotoxicity at 70.5 h is -8.41%.
Under `CCN(CC)CCNC(=O)c1cc(OC)c2ccoc2c1` stands -5.95%; under `O=C(COC1CCCC1)N1CC[C@H]2OCC[C@@]2(COCC2CC2)C1`, -3.35%; under `Cc1ccccc1C(=O)N1C[C@@H](O)[C@H](N2CCOCC2)C1`, -3.66%.
For `Fc1cccc(Oc2nccnc2C2CCN(C3CCOCC3)CC2)c1`, the cytotoxicity at 70.5 h worked out at 0.625%.
Under `CN(C)CCn1ccc(NC(=O)NC(C)(C)c2nccs2)n1` stands -12.6%; under `CCc1nnc(CNC(=O)CCC2CCCN(C)C2)s1` (stereo unspecified), -0.522%; under `OCC1CCCN(c2ncnc3c2Cc2ccccc2OC3)C1` (stereo unspecified), -5.22%.
